The source of these data is publication PMC10423218, “Molecular mechanism underlying regulation of Arabidopsis CLCa transporter by nucleotides and phospholipids” (Nature Communications, 2023).

The target of one experiment is T1, AtCLCa ΔN44 mutant (Arabidopsis thaliana, UniProt P92941).
T1 construct: gene CLC-A; N-terminal 44-residue deletion, beta-hairpin retained, homodimer, pKH3 vector in HEK293T
T1 sequence (P92941 45-775): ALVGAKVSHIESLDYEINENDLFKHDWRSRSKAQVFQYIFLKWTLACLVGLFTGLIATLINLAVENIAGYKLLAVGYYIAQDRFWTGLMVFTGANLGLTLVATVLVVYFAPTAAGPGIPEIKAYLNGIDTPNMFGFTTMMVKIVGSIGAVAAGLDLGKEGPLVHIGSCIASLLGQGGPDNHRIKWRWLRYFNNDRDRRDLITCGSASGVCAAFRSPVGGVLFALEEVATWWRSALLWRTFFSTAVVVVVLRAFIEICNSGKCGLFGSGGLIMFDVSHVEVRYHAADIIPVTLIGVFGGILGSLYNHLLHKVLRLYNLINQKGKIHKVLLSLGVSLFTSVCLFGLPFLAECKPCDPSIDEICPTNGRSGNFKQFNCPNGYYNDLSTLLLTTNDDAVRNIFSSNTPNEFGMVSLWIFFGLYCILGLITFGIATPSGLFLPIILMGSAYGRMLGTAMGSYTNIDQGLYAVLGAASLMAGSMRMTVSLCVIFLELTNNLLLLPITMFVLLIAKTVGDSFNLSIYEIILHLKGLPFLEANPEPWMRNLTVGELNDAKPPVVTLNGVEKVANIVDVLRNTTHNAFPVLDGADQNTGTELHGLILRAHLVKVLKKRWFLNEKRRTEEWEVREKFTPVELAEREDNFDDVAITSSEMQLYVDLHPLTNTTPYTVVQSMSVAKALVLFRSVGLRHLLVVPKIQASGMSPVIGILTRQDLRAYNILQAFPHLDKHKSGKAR
Kind of experiment: whole-cell patch clamp, HEK293T. Type of experiment: cell-based. Conditions: 5 mM in pipette (cytosolic side); nitrate bath; pH 7.4.

A further experiment has as its target T2, AtCLCa (Arabidopsis thaliana, UniProt P92941, E55A/S56A).
T2 construct: gene CLC-A; full-length, homodimer; structures: Pichia pastoris GS115, C-terminal GFP-6xHis tag cut by TEV, MSP1D1 nanodiscs; patch clamp: pKH3 vector in HEK293T
T2 sequence (P92941 1-775 E55A/S56A): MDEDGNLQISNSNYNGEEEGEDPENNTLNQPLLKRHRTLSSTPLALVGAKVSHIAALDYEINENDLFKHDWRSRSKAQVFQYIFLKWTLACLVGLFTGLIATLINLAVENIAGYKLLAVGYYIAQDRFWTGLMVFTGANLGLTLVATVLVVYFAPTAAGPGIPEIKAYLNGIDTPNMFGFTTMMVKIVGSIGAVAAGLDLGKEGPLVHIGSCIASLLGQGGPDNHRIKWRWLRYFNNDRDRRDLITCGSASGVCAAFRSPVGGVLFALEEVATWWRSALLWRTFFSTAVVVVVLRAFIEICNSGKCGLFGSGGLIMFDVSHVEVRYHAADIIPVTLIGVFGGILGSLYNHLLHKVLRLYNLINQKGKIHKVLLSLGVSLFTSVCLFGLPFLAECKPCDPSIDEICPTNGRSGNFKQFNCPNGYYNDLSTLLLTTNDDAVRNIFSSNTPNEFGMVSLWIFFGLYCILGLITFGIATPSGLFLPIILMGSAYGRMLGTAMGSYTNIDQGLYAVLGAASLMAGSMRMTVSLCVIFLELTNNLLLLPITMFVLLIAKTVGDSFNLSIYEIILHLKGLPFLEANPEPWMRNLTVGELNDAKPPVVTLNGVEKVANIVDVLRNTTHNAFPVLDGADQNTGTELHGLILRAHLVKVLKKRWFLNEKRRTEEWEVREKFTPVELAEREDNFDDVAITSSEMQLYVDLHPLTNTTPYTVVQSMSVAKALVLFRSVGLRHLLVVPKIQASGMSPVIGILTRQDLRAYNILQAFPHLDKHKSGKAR
Put plainly: whole-cell patch clamp, HEK293T. Type of experiment: cell-based. To be noted: 5 mM in pipette (cytosolic side); nitrate bath; pH 7.4. A general note: Patch clamp records ionic current or voltage across a cell membrane.

On to `Nc1ncnc2c1ncn2[C@@H]1O[C@H](COP(=O)(O)OP(=O)(O)OP(=O)(O)O)[C@@H](O)[C@H]1O` [ATP], for which the “inhibition of NO3^- currents at 5 mM” value on AtCLCa ΔN44 mutant was “exhibits similar inhibition pattern to wild-type AtCLCa upon ATP addition”; on AtCLCa, “(E55A/S56A) can completely abolish the inhibitory effect of ATP”.
